Earlier results as cited in patent US20240207251A1, “PHARMACEUTICAL COMPOSITION CONTAINING ARTESUNATE OR SALT THEREOF AND PYRONARIDINE OR SALT THEREOF, FOR ANTIPYRESIS, ANTI-INFLAMMATORY EFFICACY, ANTI-VIRAL EFFICACY AND TREATMENT OR PREVENTION OF COVID-19, AND METHOD USING SAME” (priority 2021, published 2024).

What was measured:
[1] = system: SARS-COV 2; settings: reported by Joon-Yong Bae et al., bioRxiv, Jul. 28, 2020
[2] = system: influenza virus; settings: reported by Joon-Yong Bae et al., bioRxiv, Jul. 28, 2020

Compound | in vitro anti-viral action on COVID-19 [1] | in vitro anti-viral action on influenza [2]
C[C@H]1[C@H](OC(=O)CCC(=O)O)O[C@@H]2O[C@@]3(C)CC[C@H]4[C@H](C)CC[C@@H]1[C@@]24OO3 [artesunate, dihydroartemisinine-12-alpha-succinate] | in vitro anti-viral action | in vitro anti-viral action
COc1ccc2nc3cc(Cl)ccc3c(Nc3cc(CN4CCCC4)c(O)c(CN4CCCC4)c3)c2n1 [pyronaridine, 4-[(7-chloro-2-methoxybenzo[b]-1,5-naphthyridin-10-yl)amino]-2,6-bis(1-pyrrolidinylmethyl)phenyl] | in vitro anti-viral action | in vitro anti-viral action
